Laboratory results from US7888319B2, “Compositions and methods for promoting wound healing and tissue regeneration” (MUSC Foundation for Research Development, priority 2004, dated 2011).

Test system: WB-F344 cells
Assay: Scratch injury of WB-F344 cell lines stably expressing ACT-peptide-encoding polynucleotide
Type: cell-based, rat
Settings: stable expression with GFP, 24 hours after scratch, vs GFP-only cell line
Text: WB-F344 cells are a transformed rat epithelial cell line derived by treatment of isolated rat liver cells with a cancer-causing agent (Tsao et al., 1984; Hayashi et al., 1997; Hayashi et al., 1998; Hayashi et al., 2001). WB-F344 cells were transfected with a cDNA expression plasmid construct and selected under antibiotic using standard protocols to generate cell lines that stably expressed an ACT-peptide-encoding-polynucleotide (SEQ ID NO:6) operably linked to a promoter sequence or a green fluorescent protein (GFP) polynucleotide operably linked to a promoter sequence as a control. The polynucleotide encoding the ACT peptide also encoded GFP. As such, expression of the ACT peptide could be assayed by standard GFP fluorescence optics on a light microscope. (a) and (b) show high magnification images of GFP fluorescence in WB-F344 cell lines expressing GFP plus the carboxy terminus ACT peptide sequence (a) or GFP alone (b). Near confluent monolayers of the WB-F344 cell lines were “scratch injured” and allowed to “heal” for 24 hours. […]
WB-F344 cells are a transformed rat epithelial cell line derived by treatment of isolated rat liver cells with a cancer-causing agent (Tsao et al., 1984; Hayashi et al., 1997; Hayashi et al., 1998; Hayashi et al., 2001). […] As such, expression of the ACT peptide could be assayed by standard GFP fluorescence optics on a light microscope. […]

aga cct cgg cct gat gac ctg gag att (DNA AGACCTCGGCCTGATGACCTGGAGATT; expressed or natural sequence) [ACT-peptide-encoding-polynucleotide, polynucleotide encoding ACT peptide plus GFP, operably linked to a promoter, stably expressed in WB-F344 cells]
repopulation of the scratch injury: inhibited repopulation of the scratch injury
